# Where a SMILES comes first, the peptide text is derived from it. [ ]: non-standard residue; d: D form. The star is where a group is joined. pS = N[CH](COP(=O)(O)O)C(=O)O; Agmatine = N=C(N)NCCCCN*; Morpholide = C1CN(*)CCO1; Piperidide = C1CCN(*)CC1; Pyrrolidide = C1CCN(*)C1
# Biological target: T1, Pin1 WW domain (Pin1–HRP) (Homo sapiens, UniProt Q13526)
# T1 construct: purchased R&D Systems
# Experiment: ELEBA primary screening assay of the library
# Type: binding
# Settings: separate plate of groups A and B (L2 control 85.0443); crude library members; DMSO = 100%; mean of N = 2
# Procedure: The library was screened by the ELEBA we reported previously.[44] The crude products resulting from diethyl ether precipitation were used for the primary and secondary ELEBA without additional purification. The concentrations of the crude products were estimated based on quantitative yields; actual concentrations were thus lower, depending on yield and purity. The library products were dissolved in DMSO as stock solutions for assays. […] Recombinant human Pin1 conjugated to horseradish peroxidase (Pin1–HRP) was used in the binding assays.[44] Fmoc-VPRpTPVGGGK-NH2 L2 was used as the positive control and DMSO was used as the negative control on each plate. The percent of Pin1–HRP bound to the plate was calculated by normalizing the binding with DMSO to be 100%. In the primary assays (Figure S1), 14 of the best library members were identified: 1{2,d}, 1{18,f}, 1{20,f}, 1{10, l}, 1{13, l}, 1{18, l}, 1{20, l}, 1{10, n}, 1{18, n}, 1{19, n}, 1{2, n}, 1{20, n}, 1{14, o}, 1{3, o}. In the secondary assay, these ligands were measured again at 270 μM, and three hits, 1{2, d}, 1{18, l} and 1{2, n}, were chosen for further analysis (Figure 3).
# The Pin1 WW domain ligand, Fmoc–VPRpTPVGGGK–NH2, (100 μL/well, 245 μM stock solution) was covalently attached to a 96-well plate through the ε-amino group of the Lys side chain at pH 11.0, as published.[44] Ligands were dissolved in DMSO at stock concentrations of ca. 50 mM by weight. Competitive binding with plate-linked Fmoc–VPRpTPVGGGK–NH2L1 of pSer–Pro dipeptides was measured at ca. 600 μM for primary screening. In the primary assays, all library members were screened with the crude products. 1{1-21, d} were measured as mixtures of cis- and trans-isomers. Library members synthesized from racemic reagents, such as 1{1-21, c}, 1{1-21, l}, 1{1-21, q}, 1{3, a-q} and 1{8, a-q} were measured as diastereomeric mixtures. The library members were dissolved in DMSO as stock solutions with a concentration of about 37 mM based on estimated yields. The DMSO stock solution of each compound (4 μL) was added into a solution of recombinant Pin1–HRP (R&D Systems) in a PBS buffer with 2% BSA (pH = 7.3). DMSO (4 μL) was used as a negative control. The final volume of the solution was 250 μL, the final concentration of Pin1–HRP was 200 pM, and the estimated final compound concentration was 590 μM. The resulting solution was preincubated for 30 min at ambient temperature, and was added into two wells (100 μL each, for assay in duplicate) of the ligand-linked plate. The solutions were incubated for another 1 h. The solutions were removed by inverting and shaking the plate, and the plate was washed with buffer ([…], and 0.05% Tween 20 in PBS at pH 7.3) three times. A 1:1 solution of hydrogen peroxide and 3,3,5,5′-tetramethylbenzidine (100 μL) was added into each plate well, and incubated in the dark for 20 min. A 2N H2SO4 solution (50 μL) was added to each well to quench the reaction, and the absorbance of was determined at 450 nm. The percentage of Pin1–HRP bound to the plate (% binding) was calculated by eq 1. To calculate the absorbance of a plate well in eq 1, the blank ligand-linked plate was predetermined at the same wavelength, and the absorbance of the blank well was subtracted from the absorbance of the same well containing the final solution. [drawing 2] 1 […]
# The Fmoc-Ser(2- […]
# cyanoethylphosphate)-OH product was cleaved from the resin with TFA. 1H NMR indicated the presence of the Fmoc group, implying that the substrate was successfully attached to the resin (data not shown). To develop the coupling methods, 2-(2-naphthyl)ethylamine and propionic acid were reacted with the pSer–Pro resin. The resulting propanoyl-pSer–Pro–(2-(2-naphthyl)ethyl)-amide (1H NMR below) was excluded from the library assays.
# Figure S1 (following pages). Ligands (group A – O) were screening using ELEBA at ca. 266 µM.
# Fmoc-VPRpTPVGGGK-NH2 L2 was used as positive control at 76-87 µM from stock solutions […]
# of 4.3-4.8 mM. […]
# T1 sequence (Q13526 whole entry, the tested form may be a part): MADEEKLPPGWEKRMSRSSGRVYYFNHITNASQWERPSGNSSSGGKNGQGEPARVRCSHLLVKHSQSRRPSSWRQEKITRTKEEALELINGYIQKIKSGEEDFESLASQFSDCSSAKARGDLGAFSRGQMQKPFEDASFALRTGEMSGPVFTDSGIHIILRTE
row,% of Pin1-HRP bound to plate-linked ligand,Compound
1,118.382%,"CC(=O)NC(COP(=O)(O)O)C(=O)N1CCCC1C(=O)N(C)CC(C)c1ccccc1 (mixture of isomers) [1{3,a}]"
2,102.481%,"CC1CCCCN1CCCNC(=O)C1CCCN1C(=O)C(COP(=O)(O)O)NC(=O)C=Cc1c[nH]cn1 (mixture of isomers) [1{8,b}]"
3,111.106%,"CC(=O)NC(COP(=O)(O)O)C(=O)N1CCCC1C(=O)N1CCCC1 (centres unmarked) [1{1,a}] (Ac-[pS]-Pro-Pyrrolidide; configuration not given here)"
4,115.042%,"CC(=O)N[C@@H](COP(=O)(O)O)C(=O)N1CCC[C@H]1C(=O)Nc1ccc2[nH]ncc2c1 [1{2,a}]"
5,113.209%,"O=C(C=Cc1c[nH]cn1)NC(COP(=O)(O)O)C(=O)N1CCCC1C(=O)Nc1ccc2[nH]ncc2c1 (centres unmarked) [1{2,b}]"
6,113.92%,"CN(CCc1ccccn1)C(=O)C1CCCN1C(=O)C(COP(=O)(O)O)NC(=O)C=Cc1c[nH]cn1 (centres unmarked) [1{5,b}]"
7,99.5048%,"CCN(CC)CCCCN(C)C(=O)[C@@H]1CCCN1C(=O)[C@H](COP(=O)(O)O)NC(C)=O [1{7,a}]"
8,108.279%,"CCN(CC)CCCCN(C)C(=O)[C@@H]1CCCN1C(=O)[C@H](COP(=O)(O)O)NC(=O)/C=C/c1c[nH]cn1 [1{7,b}]"
9,79.8617%,"NCCCCCCNC(=O)[C@@H]1CCCN1C(=O)[C@H](COP(=O)(O)O)NC(=O)/C=C/c1c[nH]cn1 [1{11,b}]"
10,120.534%,"CC(=O)N[C@@H](COP(=O)(O)O)C(=O)N1CCC[C@H]1C(=O)NCCc1c[nH]c2ccccc12 [1{14,a}]"
11,109.953%,"O=C(C=Cc1c[nH]cn1)NC(COP(=O)(O)O)C(=O)N1CCCC1C(=O)NCCc1c[nH]c2ccccc12 (centres unmarked) [1{14,b}]"
12,110.698%,"CC(=O)N[C@@H](COP(=O)(O)O)C(=O)N1CCC[C@H]1C(=O)NC1CCN(Cc2ccccc2)CC1 [1{15,a}]"
13,94.5777%,"N=C(N)NCCCCNC(=O)[C@@H]1CCCN1C(=O)[C@H](COP(=O)(O)O)NC(=O)/C=C/c1c[nH]cn1 [1{16,b}]"
14,97.5722%,"O=C(C=Cc1c[nH]cn1)NC(COP(=O)(O)O)C(=O)N1CCCC1C(=O)N1CCCCC1 (centres unmarked) [1{19,b}]"
15,113.792%,"CC(=O)NC(COP(=O)(O)O)C(=O)N1CCCC1C(=O)NCCc1ccc2ccccc2c1 (centres unmarked) [1{21,a}]"

# Further lines, the molecule ahead of its results:
row,Compound,% of Pin1-HRP bound to plate-linked ligand
1,"CC(CN(C)C(=O)C1CCCN1C(=O)C(COP(=O)(O)O)NC(=O)C=Cc1c[nH]cn1)c1ccccc1 (mixture of isomers) [1{3,b}]",124.358%
2,"CC(=O)NC(COP(=O)(O)O)C(=O)N1CCCC1C(=O)NCCCN1CCCCC1C (mixture of isomers) [1{8,a}]",108.888%
3,"O=C(C=Cc1c[nH]cn1)NC(COP(=O)(O)O)C(=O)N1CCCC1C(=O)N1CCCC1 (centres unmarked) [1{1,b}]",117.035%
4,"CC(=O)NC(COP(=O)(O)O)C(=O)N1CCCC1C(=O)NCCc1ccc(O)cc1 (centres unmarked) [1{4,a}]",120.879%
5,"O=C(C=Cc1c[nH]cn1)NC(COP(=O)(O)O)C(=O)N1CCCC1C(=O)NCCc1ccc(O)cc1 (centres unmarked) [1{4,b}]",124.444%
6,"CC(=O)N[C@@H](COP(=O)(O)O)C(=O)N1CCC[C@H]1C(=O)N(C)CCc1ccccn1 [1{5,a}]",108.292%
7,"COC(=O)C=C(C)NC(=O)[C@@H]1CCCN1C(=O)[C@H](COP(=O)(O)O)NC(C)=O [1{6,a}]",116.564%
8,"COC(=O)C=C(C)NC(=O)C1CCCN1C(=O)C(COP(=O)(O)O)NC(=O)C=Cc1c[nH]cn1 (centres unmarked) [1{6,b}]",111.464%
9,"CC(=O)NC(COP(=O)(O)O)C(=O)N1CCCC1C(=O)NCCc1c[nH]cn1 (centres unmarked) [1{9,a}]",109.367%
10,"O=C(C=Cc1c[nH]cn1)NC(COP(=O)(O)O)C(=O)N1CCCC1C(=O)NCCc1c[nH]cn1 (centres unmarked) [1{9,b}]",117.354%
11,"CC(=O)N[C@@H](COP(=O)(O)O)C(=O)N1CCC[C@H]1C(=O)N1CCN(c2ncccn2)CC1 [1{10,a}]",102.123%
12,"O=C(C=Cc1c[nH]cn1)NC(COP(=O)(O)O)C(=O)N1CCCC1C(=O)N1CCN(c2ncccn2)CC1 (centres unmarked) [1{10,b}]",93.9893%
13,"CC(=O)N[C@@H](COP(=O)(O)O)C(=O)N1CCC[C@H]1C(=O)NCCCCCCN [1{11,a}]",74.9059%
14,"CC(=O)NC(COP(=O)(O)O)C(=O)N1CCCC1C(=O)NCCCn1ccnc1 (centres unmarked) [1{12,a}]",109.194%
15,"O=C(C=Cc1c[nH]cn1)NC(COP(=O)(O)O)C(=O)N1CCCC1C(=O)NCCCn1ccnc1 (centres unmarked) [1{12,b}]",94.4757%
16,"CC(=O)NC(COP(=O)(O)O)C(=O)N1CCCC1C(=O)N1CCC(N2CCCCC2)CC1 (centres unmarked) [1{13,a}]",109.315%
17,"O=C(/C=C/c1c[nH]cn1)N[C@@H](COP(=O)(O)O)C(=O)N1CCC[C@H]1C(=O)N1CCC(N2CCCCC2)CC1 [1{13,b}]",96.4764%
18,"O=C(C=Cc1c[nH]cn1)NC(COP(=O)(O)O)C(=O)N1CCCC1C(=O)NC1CCN(Cc2ccccc2)CC1 (centres unmarked) [1{15,b}]",98.3254%
19,"CC(=O)NC(COP(=O)(O)O)C(=O)N1CCCC1C(=O)NCCCCNC(=N)N (centres unmarked) [1{16,a}] (Ac-[pS]-Pro-Agmatine; configuration not given here)",112.945%
20,"CC(=O)NC(COP(=O)(O)O)C(=O)N1CCCC1C(=O)NCCCN1CCOCC1 (centres unmarked) [1{17,a}]",117.069%
21,"O=C(/C=C/c1c[nH]cn1)N[C@@H](COP(=O)(O)O)C(=O)N1CCC[C@H]1C(=O)NCCCN1CCOCC1 [1{17,b}]",94.8602%
22,"CC(=O)N[C@@H](COP(=O)(O)O)C(=O)N1CCC[C@H]1C(=O)NNC(=O)c1ccco1 [1{18,a}]",102.518%
23,"O=C(/C=C/c1c[nH]cn1)N[C@@H](COP(=O)(O)O)C(=O)N1CCC[C@H]1C(=O)NNC(=O)c1ccco1 [1{18,b}]",87.6813%
24,"CC(=O)N[C@@H](COP(=O)(O)O)C(=O)N1CCC[C@H]1C(=O)N1CCCCC1 [1{19,a}] (Ac-[pS]-Pro-Piperidide)",116.14%
25,"CC(=O)N[C@@H](COP(=O)(O)O)C(=O)N1CCC[C@H]1C(=O)N1CCOCC1 [1{20,a}] (Ac-[pS]-Pro-Morpholide)",115.484%
26,"O=C(C=Cc1c[nH]cn1)NC(COP(=O)(O)O)C(=O)N1CCCC1C(=O)NCCc1ccc2ccccc2c1 (centres unmarked) [1{21,b}]",77.3223%

# — publication PMC11542186, “Pin1 WW Domain Ligand Library Synthesized with an Easy Solid-Phase Phosphorylating Reagent” (Biochemistry, 2024)
